Like-named read-outs stand apart in the source and are kept apart here.
Tests used:
Test in all cases: 5-day viable cell number and apoptosis (7-AAD exclusion/Annexin V flow cytometry)
Assay type in all cases: cell-based
[1] = system: OCI-LY-7
From the text: (§1) The DLBCL panel includes seven cell lines classified as activated B-cell (ABC) subtype, thirteen cell lines classified as the germinal center B-cell (GCB) subtype, and three cell lines classified as primary mediastinal B-cell lymphoma (PMBL). […] The translocation of MYC, BCL6, or BCL2 to an IG locus usually leads to high levels of mRNA and protein due to the active transcription driven by a constitutively active IG promoter. […] Expressions of CRBN protein and known substrates, Ikaros, Aiolos, and ZFP91 were also evaluated (FIG. 1, panels B and C).
(§2) The panel of cell lines were treated with increasing doses of compounds for five days, at which time the number of viable cells was measured and the amount of apoptosis was determined by 7-AAD exclusion and Annexin V staining using flow cytometry.

[2] = system: SU-DHL-16
From the text: as §1, §2

[3] = system: SU-DHL-2
From the text: as §1, §2

[4] = system: SU-DHL-8
From the text: as §1, §2

[5] = system: Farage
From the text: as §1, §2

[6] = system: KARPAS-1106P
From the text: as §1, §2

[7] = system: SU-DHL-4
From the text: as §1, §2

[8] = system: SU-DHL-10
From the text: as §1, §2

[9] = system: DB; details: DB cells, 5 days
From the text: as §1, §2

[10] = system: RIVA; details: 120 h, RIVA cells, 5 days
From the text: as §1, §2

[11] = Homo sapiens, OCI-Ly7, 120 h, OCI-LY-7 cells, 5 days
[12] = Homo sapiens, 120 h, SU-DHL-16 cells, 5 days
[13] = Homo sapiens, 120 h, SU-DHL-2 cells, 5 days
[14] = Homo sapiens, 120 h, SU-DHL-8 cells, 5 days
[15] = Homo sapiens, 120 h, KARPAS-1106P cells, 5 days
[16] = Homo sapiens, 120 h, SU-DHL-4 cells, 5 days
[17] = Homo sapiens, SU-DHL10, 120 h, SU-DHL-10 cells, 5 days

O=C1CC[C@H](N2C(=O)c3cccc(NCc4ccc(CN5CC(N6CCOCC6)C5)cc4F)c3C2=O)C(=O)N1 [Compound 1, (S)-2-(2,6-dioxopiperidin-3-yl)-4-((2-fluoro-4-((3-morpholinoazetidin-1-yl)methyl)benzyl)amino)isoindoline-1,3-dione]
EC50 [1, 11]: 12.8 nM | Emax [1, 11]: 68.8% | IC50 ([1]; Homo sapiens, OCI-Ly7, 120 h, OCI-LY-7 cells, 5 days, read-out: % Viable Cells IC50): 3.6 nM | IC50 ([1]; Homo sapiens, OCI-Ly7, OCI-LY-7 cells (Table 3), read-out: IC50): 62000 nM | % Viable Cells AUC ([1]; OCI-LY-7 cells, 5 days): 61.98 | % Viable Cells Emax ([1]; OCI-LY-7 cells, 5 days): 1.657% | % Viable Cells Sensitivity ([1]; OCI-LY-7 cells, 5 days): High (highly sensitive to Compound 1 with less than 6% viable cells remaining (Emax) after treatment) | Apoptosis AUC ([1]; OCI-LY-7 cells, 5 days): 673.2 | Apoptosis Sensitivity ([1]; OCI-LY-7 cells, 5 days): High | EC50 [2, 12]: 262 nM | Emax [2, 12]: 18.2% | IC50 ([2]; Homo sapiens, 120 h, SU-DHL-16 cells, 5 days, read-out: % Viable Cells IC50): 120 nM | IC50 ([2]; Homo sapiens, SU-DHL-16 cells (Table 3), read-out: IC50): 360000 nM | % Viable Cells AUC ([2]; SU-DHL-16 cells, 5 days): 359.7 | % Viable Cells Emax ([2]; SU-DHL-16 cells, 5 days): 30.33% | % Viable Cells Sensitivity ([2]; SU-DHL-16 cells, 5 days): Intermediate (intermediate sensitivity with 15% to 55% cell viability) | Apoptosis AUC ([2]; SU-DHL-16 cells, 5 days): 159.1 | Apoptosis Sensitivity ([2]; SU-DHL-16 cells, 5 days): Intermediate | EC50 [3, 13]: 7.78 nM | Emax [3, 13]: 75.2% | IC50 ([3]; Homo sapiens, 120 h, SU-DHL-2 cells, 5 days, read-out: % Viable Cells IC50): 1.3 nM | IC50 ([3]; Homo sapiens, SU-DHL-2 cells (Table 3), read-out: IC50): 7000 nM | % Viable Cells AUC ([3]; SU-DHL-2 cells, 5 days): 6.871 | % Viable Cells Emax ([3]; SU-DHL-2 cells, 5 days): 1.264% | % Viable Cells Sensitivity ([3]; SU-DHL-2 cells, 5 days): High (highly sensitive to Compound 1 with less than 6% viable cells remaining (Emax) after treatment) | Apoptosis AUC ([3]; SU-DHL-2 cells, 5 days): 745 | Apoptosis Sensitivity ([3]; SU-DHL-2 cells, 5 days): High | EC50 [4, 14]: 509 nM | Emax [4, 14]: 70.5% | IC50 ([4]; Homo sapiens, 120 h, SU-DHL-8 cells, 5 days, read-out: % Viable Cells IC50): 250 nM | IC50 ([4]; Homo sapiens, SU-DHL-8 cells (Table 3), read-out: IC50): 54000 nM | % Viable Cells AUC ([4]; SU-DHL-8 cells, 5 days): 54.43 | % Viable Cells Emax ([4]; SU-DHL-8 cells, 5 days): 2.508% | % Viable Cells Sensitivity ([4]; SU-DHL-8 cells, 5 days): High (highly sensitive to Compound 1 with less than 6% viable cells remaining (Emax) after treatment) | Apoptosis AUC ([4]; SU-DHL-8 cells, 5 days): 652.5 | Apoptosis Sensitivity ([4]; SU-DHL-8 cells, 5 days): High | EC50 ([5]; 120 h, Farage cells, 5 days): 73.6 nM | Emax ([5]; 120 h, Farage cells, 5 days): 54.2% | IC50 ([5]; 120 h, Farage cells, 5 days, read-out: % Viable Cells IC50): 3.7 nM | IC50 ([5]; Farage cells (Table 3), read-out: IC50): 59000 nM | % Viable Cells AUC ([5]; Farage cells, 5 days): 59.29 | % Viable Cells Emax ([5]; Farage cells, 5 days): 1.676% | % Viable Cells Sensitivity ([5]; Farage cells, 5 days): High (highly sensitive to Compound 1 with less than 6% viable cells remaining (Emax) after treatment) | Apoptosis AUC ([5]; Farage cells, 5 days): 503.6 | Apoptosis Sensitivity ([5]; Farage cells, 5 days): High | EC50 [6, 15]: 56.1 nM | Emax [6, 15]: 59.8% | IC50 ([6]; Homo sapiens, 120 h, KARPAS-1106P cells, 5 days, read-out: % Viable Cells IC50): 25 nM | IC50 ([6]; Homo sapiens, KARPAS-1106P cells (Table 3), read-out: IC50): 111000 nM | % Viable Cells AUC ([6]; KARPAS-1106P cells, 5 days): 110.9 | % Viable Cells Emax ([6]; KARPAS-1106P cells, 5 days): 1.183% | % Viable Cells Sensitivity ([6]; KARPAS-1106P cells, 5 days): High (highly sensitive to Compound 1 with less than 6% viable cells remaining (Emax) after treatment) | Apoptosis AUC ([6]; KARPAS-1106P cells, 5 days): 597.7 | Apoptosis Sensitivity ([6]; KARPAS-1106P cells, 5 days): High | EC50 [7, 16]: 452 nM | Emax [7, 16]: 18.9% | IC50 ([7]; Homo sapiens, 120 h, SU-DHL-4 cells, 5 days, read-out: % Viable Cells IC50): 500 nM | IC50 ([7]; Homo sapiens, SU-DHL-4 cells (Table 3), read-out: IC50): 457000 nM | % Viable Cells AUC ([7]; SU-DHL-4 cells, 5 days): 457.4 | % Viable Cells Emax ([7]; SU-DHL-4 cells, 5 days): 41.79% | % Viable Cells Sensitivity ([7]; SU-DHL-4 cells, 5 days): Intermediate (intermediate sensitivity with 15% to 55% cell viability) | Apoptosis AUC ([7]; SU-DHL-4 cells, 5 days): 155.2 | Apoptosis Sensitivity ([7]; SU-DHL-4 cells, 5 days): Intermediate | EC50 [8, 17]: 16.3 nM | Emax [8, 17]: 81.9% | IC50 ([8]; Homo sapiens, SU-DHL10, 120 h, SU-DHL-10 cells, 5 days, read-out: % Viable Cells IC50): 10 nM | IC50 ([8]; Homo sapiens, SU-DHL10, SU-DHL-10 cells (Table 3), read-out: IC50): 3400 nM | % Viable Cells AUC ([8]; SU-DHL-10 cells, 5 days): 3.371 | % Viable Cells Emax ([8]; SU-DHL-10 cells, 5 days): 2.477% | % Viable Cells Sensitivity ([8]; SU-DHL-10 cells, 5 days): High (highly sensitive to Compound 1 with less than 6% viable cells remaining (Emax) after treatment) | Apoptosis AUC ([8]; SU-DHL-10 cells, 5 days): 815.3 | Apoptosis Sensitivity ([8]; SU-DHL-10 cells, 5 days): High | % Viable Cells AUC [9]: 1173 | % Viable Cells Emax [9]: 107.1% | % Viable Cells Sensitivity [9]: Limited | Apoptosis AUC [9]: 0 | Apoptosis Sensitivity [9]: Limited | EC50 [10]: 19 nM | Emax [10]: 22.7% | IC50 ([10]; read-out: % Viable Cells IC50): 50 nM
